Test results taken from patent US12121540B2, “CBL inhibitors and compositions for use in adoptive cell therapy” (Nurix Therapeutics, Inc., priority 2019, dated 2024).

Assays:
E.G7-OVA tumors = assay: Adoptive transfer of ex vivo expanded OT-1 cells into E.G7-OVA tumor-bearing mice: antitumor response; type: in vivo, mouse
Text: Antigen specific T cells from transgenic mice can be leveraged as a model for CAR T or TIL expansion ex vivo with a Cbl inhibitor. The OT-1 transgenic animals, that are commercially available, have CD8 T cells that recognize OVA peptide aa 257-264 when presented by the MHC I molecule. CD8+ T cells from OT-1 mice were isolated from a single cell suspension of splenocytes by negative selection (StemCell Technologies cat #19853 EasySep™ Mouse CD8+ T Cell Isolation Kit). Cell were then resuspended in complete media (RPMI1640, 10% heat inactivated FBS, 1× Penicillin/Streptomycin, 1× Glutamine and […]-mercaptoethanol) at concentration of 0.5×10^6 per mL. Six well tissue culture plates (Falcon) were coated with 2 ug/mL of anti-mouse CD3 (Bio Xcell Cat #BE0001-1-R100 mg InVivoMAb anti-mouse CD3ε Clone: 145-2C11) for >3 hrs at 37° C. and washed with PBS (MediaTech) prior to cell addition. […] Following three days of OT-1 T cell activation and expansion the cells were collected, counted and immunophenotyped by flow cytometry by measuring expression of differentiation and additional T cell makers including: CD3, CD4, CD8, CD45, CD25, Granzyme B, CD107a, CD127, PD-1, TIM3, LAG3, KLRG-1, ICOS, TCF1, Ki67, T-bet and FOXP3.
(§1) Dead cells were removed (Miltenyi Biotec Cat #130-090-101) prior to transfer in vivo to monitor their trafficking and function in an EG.7 lymphoma model, which expresses the OVA antigen. Approximately five million cells per mouse were transferred to mice having an average tumor burden of about 70 mm^3. Following in vivo transfer of the OT-1 cells, antitumor response was monitored over time and the quality and quantity of immune response were assessed at various time points.
(§2) The expanded OT-1 cells were characterized by FACS analysis and transferred into E.G7-OVA mice, which bear ovalbumin (OVA) expressing tumors. Following in vivo transfer of expanded OT-1 cells, antitumor response was monitored over time and the quality and quantity of immune response was assessed at various time points. Analysis included FACS analysis on blood, tumor, and spleen samples. Analysis also included re-stimulation of splenocytes with OVA Class I peptide to evaluate the multifunctionality of the antigen-specific effector T cells.
(§3) On Day 0, E.G7-OVA cells were implanted into each mouse. On Day 5, approximately 5×10^6 in vitro expanded OT-1 cells were injected into the tail of each mouse. On Day 9, blood was analyzed by FACS. On Day 14, blood, tumor and spleen samples were analyzed by FACS. On Day 27, blood was analyzed by FACS. Tumor volume was measured approximately every five days through about 50 days post implant.

[1] = system: human tumor-infiltrating lymphocytes (TIL); assay: Ex vivo expansion of TIL from human tumor fragments (pre-REP); type: cell-based; conditions: for Expansion of TIL, total cell number relative to IL-2 alone: day 17
Method: Samples of human ovarian and colon tumors were obtained from the Cooperative Human Tissue Network (CHTN, c/o Vanderbilt University Medical Center, Nashville, TN). Solid tumor specimens were carefully dissected free of surrounding fatty and necrotic areas. The tumors were sliced into 8 mm^3 (2×2×2 mm^3) fragments under sterile conditions using a scalpel and a scalpel holder.
The plates were placed in a humidified 37° C. incubator with 5% CO2. Half of the medium was replaced every two days after culture initiation. […] Subsequently, half the media was replaced thrice weekly, cultures were split to maintain a cell density of 1×10^6 cells/mL. […] Mitochondrial markers including, Mitotracker, Mitoprobe, and 2-NBDG may also be used to assess differentiation and/or activation of cells.

OT-1 cells = assay: FACS of transferred OT-1 cells in blood and tumor of E.G7-OVA mice; type: in vivo, mouse
Method: as §1, §2, §3
OT-1 cells were expanded according to the previous examples and administered to E.G7-OVA mice, which bear ovalbumin (OVA) expressing tumors. The cells were evaluated for their in vivo properties.
Expanded OT-1 cells were assessed in blood 4 days and 22 days after transfer.
Expanded OT-1 cells were assessed in tumors 4 days after transfer.

TIL = assay: Cytokine and chemokine secretion of expanded TIL (Luminex); type: cell-based, human
Method: Also assessed were cytokines and chemokines secreted during the 14 day expansion in GREX.
Supernatants were assessed by Luminex.

## C[C@@H]1CN(Cc2cc3c(c(C(F)(F)F)c2)CN(c2cccc(C4(Cc5nncn5C)COC4)c2)C3=O)CCC1(F)F [compound 103]
E.G7-OVA tumors; 3-day ex vivo exposure, alone or in combination with IL-2
  Anti-tumor phenotype of transferred T cells vs controls: conferred a lasting anti-tumor phenotype for over a month
E.G7-OVA tumors; OT-1 cells expanded with compound 103, FIG. 12A
  Inhibition of tumor growth vs IL-2 expanded cells: more pronounced inhibition of tumor growth
E.G7-OVA tumors; OT-1 cells expanded with compound 103, FIG. 12B
  Long-term survival vs IL-2 expanded cells: improved long-term survival
E.G7-OVA tumors; OT-1 cells expanded with compound 103 plus IL-2, FIG. 12A
  Inhibition of tumor growth vs single agents alone: more pronounced inhibition of tumor growth
E.G7-OVA tumors; OT-1 cells expanded with compound 103 plus IL-2, FIG. 12B
  Long term survival vs single agents alone: superior long term survival
E.G7-OVA tumors; expanded with compound 103 (1 μM) alone, FIGS. 11A and 11B
  Potency of expanded CD8+ OT-1 cells (tumor volume) vs IL-2 expanded: at least as potent
E.G7-OVA tumors; mice subcutaneously implanted with E.G7-OVA cells, FIG. 9
  Rejection of established tumors by expanded OT-1 cells: potent effectors capable of rejecting established tumors
[1]; Cbl inhibitor in the absence of IL-2
  Expansion of TIL: considerable expansion of TIL
[1]; TIL1 (ovary), 0.1 μM Cbl-i
  Expansion of TIL, total cell number relative to IL-2 alone: 90%
[1]; TIL1 (ovary), 1.0 μM Cbl-i
  Expansion of TIL, total cell number relative to IL-2 alone: 75%
[1]; TIL1 (ovary), 10 μM Cbl-i
  Expansion of TIL, total cell number relative to IL-2 alone: 60%
[1]; TIL1 (ovary), IL-2 + 0.1 μM Cbl-i
  Expansion of TIL, total cell number relative to IL-2 alone: 300%
[1]; TIL1 (ovary), IL-2 + 1.0 μM Cbl-i
  Expansion of TIL, total cell number relative to IL-2 alone: 450%
[1]; TIL1 (ovary), IL-2 + 10 μM Cbl-i
  Expansion of TIL, total cell number relative to IL-2 alone: 450%
[1]; TIL2 (ovary), 0.1 μM Cbl-i
  Expansion of TIL, total cell number relative to IL-2 alone: 30%
[1]; TIL2 (ovary), 1.0 μM Cbl-i
  Expansion of TIL, total cell number relative to IL-2 alone: 26%
[1]; TIL2 (ovary), 10 μM Cbl-i
  Expansion of TIL, total cell number relative to IL-2 alone: 22%
[1]; TIL2 (ovary), IL-2 + 0.1 μM Cbl-i
  Expansion of TIL, total cell number relative to IL-2 alone: 49%
[1]; TIL2 (ovary), IL-2 + 1.0 μM Cbl-i
  Expansion of TIL, total cell number relative to IL-2 alone: 86%
[1]; TIL2 (ovary), IL-2 + 10 μM Cbl-i
  Expansion of TIL, total cell number relative to IL-2 alone: 49%
[1]; TIL3 (ovary), 0.1 μM Cbl-i
  Expansion of TIL, total cell number relative to IL-2 alone: 30%
[1]; TIL3 (ovary), 1.0 μM Cbl-i
  Expansion of TIL, total cell number relative to IL-2 alone: 43%
[1]; TIL3 (ovary), 10 μM Cbl-i
  Expansion of TIL, total cell number relative to IL-2 alone: 16%
[1]; TIL3 (ovary), IL-2 + 0.1 μM Cbl-i
  Expansion of TIL, total cell number relative to IL-2 alone: 103%
[1]; TIL3 (ovary), IL-2 + 1.0 μM Cbl-i
  Expansion of TIL, total cell number relative to IL-2 alone: 114%
[1]; TIL3 (ovary), IL-2 + 10 μM Cbl-i
  Expansion of TIL, total cell number relative to IL-2 alone: 110%
[1]; TIL4 (colon), 0.1 μM Cbl-i
  Expansion of TIL, total cell number relative to IL-2 alone: 45%
[1]; TIL4 (colon), 1.0 μM Cbl-i
  Expansion of TIL, total cell number relative to IL-2 alone: 58%
[1]; TIL4 (colon), 10 μM Cbl-i
  Expansion of TIL, total cell number relative to IL-2 alone: 54%
[1]; TIL4 (colon), IL-2 + 0.1 μM Cbl-i
  Expansion of TIL, total cell number relative to IL-2 alone: 113%
[1]; TIL4 (colon), IL-2 + 1.0 μM Cbl-i
  Expansion of TIL, total cell number relative to IL-2 alone: 197%
[1]; TIL4 (colon), IL-2 + 10 μM Cbl-i
  Expansion of TIL, total cell number relative to IL-2 alone: 170%
[1]; TIL5 (ovary), 0.1 μM Cbl-i
  Expansion of TIL, total cell number relative to IL-2 alone: 50%
[1]; TIL5 (ovary), 1.0 μM Cbl-i
  Expansion of TIL, total cell number relative to IL-2 alone: 70%
[1]; TIL5 (ovary), 10 μM Cbl-i
  Expansion of TIL, total cell number relative to IL-2 alone: 90%
[1]; TIL5 (ovary), IL-2 + 0.1 μM Cbl-i
  Expansion of TIL, total cell number relative to IL-2 alone: 20%
[1]; TIL5 (ovary), IL-2 + 1.0 μM Cbl-i
  Expansion of TIL, total cell number relative to IL-2 alone: 10%
[1]; TIL5 (ovary), IL-2 + 10 μM Cbl-i
  Expansion of TIL, total cell number relative to IL-2 alone: 20%
[1]; TIL6 (ovary), 0.1 μM Cbl-i
  Expansion of TIL, total cell number relative to IL-2 alone: 93%
[1]; TIL6 (ovary), 1.0 μM Cbl-i
  Expansion of TIL, total cell number relative to IL-2 alone: 87%
[1]; TIL6 (ovary), 10 μM Cbl-i
  Expansion of TIL, total cell number relative to IL-2 alone: 80%
[1]; TIL6 (ovary), IL-2 + 0.1 μM Cbl-i
  Expansion of TIL, total cell number relative to IL-2 alone: 280%
[1]; TIL6 (ovary), IL-2 + 1.0 μM Cbl-i
  Expansion of TIL, total cell number relative to IL-2 alone: 260%
[1]; TIL6 (ovary), IL-2 + 10 μM Cbl-i
  Expansion of TIL, total cell number relative to IL-2 alone: 240%
[1]; both IL-2 and Cbl inhibitor, TIL1 and TIL4
  Production of TIL vs IL-2 or Cbl inhibitor alone: substantially more TIL
OT-1 cells; Cbl inhibitor expanded, 4 and 22 days after transfer
  Frequency in total CD45+ cells and persistence in blood vs IL-2 alone or anti-CD3 alone: higher frequency in total CD45+ cells and persisted longer
OT-1 cells; Cbl inhibitor expanded, 4 days after transfer
  Tumor infiltration (frequency in total CD45+ cells in tumor) vs IL-2 alone or anti-CD3 alone: increased ability to infiltrate the tumor
OT-1 cells; OT-1 cells expanded with Cbl inhibitor
  OT-1 cells expressing stem markers TCF1+, PD-1+, TIM-3−: greater percentage of cells that expressed stem markers
OT-1 cells; expanded with Cbl inhibitor and IL-2, 4 and 22 days after transfer
  Frequency in total CD45+ cells and persistence in blood: even higher frequency in total CD45+ cells and higher persistence
OT-1 cells; expanded with Cbl inhibitor and IL-2, 4 days after transfer
  Tumor infiltration (frequency in total CD45+ cells in tumor): highest frequency in total CD45+ cells
OT-1 cells; expanded with Cbl inhibitor or Cbl inhibitor plus IL-2
  Expression of exhaustion markers PD1, TIM3, LAG3 in tumor vs IL-2 alone: lower level of expression of exhaustion markers
TIL; IL-2 + compound 103
  GMCSF, MIP1α, MIP1β and IP10 secreted during 14 day expansion in GREX: trending increases
  IFN-γ secreted during 14 day expansion in GREX: significant increase of IFN-γ
TIL; high dose IL-2 + 1 μM compound 103, 24 hours
  Secretion of IL-2, IL-5, IL-7, IL-21, IL-23, TNF-α, and IFN-γ upon stimulation: significant secretion
TIL; high dose IL-2 + 1 μM compound 103, anti-CD3/CD28 24 hours
  Secretion of MIP1α and MIP1β upon stimulation: significant increases in secretion
